Experimental findings from US8623900B2, “Amino alcohol derivatives and their therapeutic activities” (Flamma S.p.A., priority 2009, dated 2014) are described below.

Structures are written as SMILES.

The subject of one data set is rat. Briefly: preliminary toxicological study in the rat. The data set is classed as in vivo.
A short description of data set [1]: carbonyl-quenching activity towards HNE in vitro (residual HNE by reverse-phase chromatography). The note with it: HNE 50 μM, compound 1 mM, phosphate buffer 10 mM, pH 7.4, 37° C.; percentage of HNE reacted after one, two and three hours. The data set is classed as biochemical. The method, then: The pharmacological activity of the compounds according to the invention was determined in vitro by evaluating their carbonyl-quenching activity towards 4-hydroxy nonenal ([…]), which is known for its involvement in numerous disorders.
The activity was evaluated one, two and three hours after incubation, determining the residual HNE content by reverse-phase chromatography as previously described by Aldini G. et al. [Biochem Biophys Res Commun. 2002 Nov. 15; 298(5):699-706]. The carbonyl-quenching activity is evaluated on the basis of the percentage of HNE reacted, compared with the HNE content in the absence of the molecule to be tested.

Consider `NCCC(=O)N[C@H](CO)Cc1cnc[nH]1` [3-Amino-N-[(1S)-2-hydroxy-1-(1H-imidazol-5-yl-methyl)-ethyl]propanamide], for which the toxic effects entry in the data set on rat (IV, 3 consecutive doses 3, 10 and 30 mg/kg) is recorded as “no toxic effects were observed”; in the data set on rat (intraperitoneal, single dose 100 mg/kg) it was “no toxic effects were observed”; in the data set with rat (per os (gavage), 100 mg/kg/day for 7 days) it was “no toxic effects were observed”. In addition, the “carbonyl-quenching activity relative to β-alanyl histidine (standard substance)” value in data set [1] is given as 1.66 times.
